Values after ≈ are worked out from the molar mass of the structure shown.
Legend:
E. coli RNAP core enzyme = target: T1, E. coli RNAP core enzyme (Escherichia coli, UniProt P0A8T7+P0A8V2); format: biochemical; conditions: 0.5 μM GE
T1 construct: purchased Epicentre, Madison, WI

E. coli D21f2tolC = assay: Resistance and cross-resistance levels, rpoB mutants from saturation mutagenesis (plasmid-borne), broth microdilution; format: cell-based, Escherichia coli
[1] = target: T2, Thermus thermophilus RNAP (Thermus thermophilus, UniProt Q8RQE8+Q8RQE9); assay: biochemical
T2 construct: made in house

E. coli RNAP holoenzyme [2] = target: T3, E. coli RNAP holoenzyme (Escherichia coli, UniProt P0A8T7+P0A8V2); format: biochemical; conditions: halted TEC containing 29 nt RNA product
E. coli RNAP holoenzyme [3] = target: T3, E. coli RNAP holoenzyme; format: biochemical; conditions: 0.5 μM GE or 2.2 μM Rif; lacUV5(ICAP) promoter
E. coli RNAP holoenzyme [4] = target: T3, E. coli RNAP holoenzyme; format: biochemical; conditions: 0.5 μM GE; T7 A1 promoter
E. coli RNAP holoenzyme [5] = target: T3, E. coli RNAP holoenzyme; format: biochemical; conditions: 0.5 μM GE or 2.2 μM Rif; ApA primer and UTP
[6] = target: T4, Mycobacterium tuberculosis RNAP (Mycobacterium tuberculosis, UniProt P9WGY7+P9WGY9); assay: biochemical
T4 construct: made in house

[7] = target: T5, Staphylococcus aureus RNAP (Staphylococcus aureus, UniProt P47768+Q2G0N5); assay: biochemical
T5 construct: made in house

Escherichia coli RNAP = Escherichia coli RNAP (Escherichia coli, UniProt P0A8T7+P0A8V2); assay: biochemical; format: biochemical; conditions: wild-type E. coli RNAP
[8] = test system: Moraxella catarrhalis ATCC 25238; assay: Antibacterial activity, MIC by broth microdilution; format: cell-based; conditions: ATCC25238
From the text: (§1) Minimum inhibitory concentrations (MICs) were quantified using broth microdilution assays ([Clinical and Laboratory Standards Institute, 2009]), using a starting cell density of 3 × 10^4 cfu/ml, LB broth ([Sambrook and Russell, 2001]), and an air atmosphere for E. coli D21f2tolC (tolC:Tn10 rfa lac28 proA23 trp30 his51 rpsL173 ampC tsx81; strain with cell-envelope defects resulting in increased susceptibility to hydrophobic agents, including GE; Fralick and Burns-Keliher, 1994; unpublished data), and using a starting cell density of 3 × 10^4 cfu/ml, Bacto Todd Hewitt broth (TH broth; BD Biosciences, San Jose, CA), and a 7% CO2/6% O2/4% H2/83% N2 atmosphere for S. pyogenes and M. catarrhalis.

[9] = test system: Streptococcus pyogenes ATCC 12344; assay: Antibacterial activity, MIC by broth microdilution; format: cell-based; conditions: ATCC12344
From the text: as §1

[10] = test system: Escherichia coli D21f2tolC; assay: Antibacterial activity, MIC by broth microdilution; format: cell-based; conditions: starting cell density 3 × 10^4 cfu/ml
From the text: as §1

S. pyogenes = assay: Resistance levels, chromosomal GE^R mutants, broth microdilution; format: cell-based, Streptococcus pyogenes
[Asp565]β-RNAP = [Asp565]β-RNAP (Escherichia coli, UniProt P0A8T7+P0A8V2, E565D); assay: Fluorescence-detected RNAP-Rif interaction assay, GE-resistant RNAP; format: binding
Description: (§2) RNAP-Rif interaction assays were performed as in [Feklistov et al. (2008)]. The assays monitored the quenching of the fluorescence emission of fluorescein incorporated into RNAP holoenzyme at σ^70 residue 517 (serving as a fluorescence-resonance-energy-transfer donor) by the naphthyl moiety of Rif (serving as a fluorescence-resonance-energy-transfer acceptor; [Knight et al., 2005]; [Feklistov et al., 2008]). Fluorescence measurements were performed using a QuantaMaster QM1 spectrofluorometer (PTI, Edison, NJ) (excitation wavelength = 480 nm; emission wavelength = 530 nm; and excitation and emission slit widths = 5 nm).
(§3) For determination of association kinetics, 720 μl 2 nM [F^517]σ^70-RNAP holoenzyme and 0-2 μM GE in 40 mM Tris–HCl, pH 8.0, 100 mM NaCl, 10 mM MgCl2, 1 mM DTT, 0.02% Tween-20, and 5% glycerol was incubated 15 min at 24°C and then mixed with 30 μl 0.01–0.5 μM Rif in the same buffer at 24°C in a cuvette chamber with a mixing dead time ∼0.5 s, and fluorescence emission intensities were monitored for 30 min at 24°C. […]
(§4) The equilibrium dissociation constant for RNAP-GE interaction, Ki, was calculated from the association-kinetics data, by fitting the GE-concentration-dependence of I∞ to: I∞=(I∞,max[GE])/(Ki+[GE])

[Lys684]β-RNAP [11] = target: T6, [Lys684]β-RNAP (Escherichia coli, UniProt P0A8T7+P0A8V2, N684K); assay: as above; format: binding
Description: as §2, §3, §4

[Lys684]β-RNAP [12] = target: T6, [Lys684]β-RNAP; assay: biochemical; conditions: GE-resistant RNAP [Lys684]β-RNAP
[13] = target: T7, E. coli RNAP holoenzyme ([F^517]σ^70-RNAP holoenzyme) (Escherichia coli, UniProt P0A8T7+P0A8V2); assay: Fluorescence-detected RNAP-Rif interaction assay; format: binding
T7 construct: made in house
Description: as §2
For determination of association kinetics, 720 μl 2 nM [F^517]σ^70-RNAP holoenzyme and 0-2 μM GE in 40 mM Tris–HCl, pH 8.0, 100 mM NaCl, 10 mM MgCl2, 1 mM DTT, 0.02% Tween-20, and 5% glycerol was incubated 15 min at 24°C and then mixed with 30 μl 0.01–0.5 μM Rif in the same buffer at 24°C in a cuvette chamber with a mixing dead time ∼0.5 s, and fluorescence emission intensities were monitored for 30 min at 24°C. On-rates for RNAP-Rif interaction, kon, were calculated by fitting data to: I=(I0−I∞)exp(−kobst)+I∞ where kobs is the observed association rate constant at a specified Rif concentration, I is the fluorescence emission intensity at time t, Io is the fluorescence emission intensity at t = 0, and I∞ is the fluorescence emission intensity at t = ∞; followed by fitting the Rif-concentration-dependence of kobs to: kobs=kon[Rif]+koff where koff is ≥0 but is otherwise unconstrained.
Off-rates for RNAP-Rif interaction, koff, were calculated as: I=I0+(I∞−I0)[1−exp(−kofft)] where I is the fluorescence emission intensity at time t, Io is the fluorescence intensity at t = 0, and I∞ is the fluorescence intensity at t = ∞.
Equilibrium dissociation constants for RNAP-Rif interaction, Kd, were calculated as koff/kon.
as §4

Human RNAP I / II / III = assay: Radiochemical assay with human RNAP I/II/III (HeLa nuclear extract); format: biochemical
Description: Radiochemical assays with human RNAP I/II/III were performed essentially as in [Sawadogo and Roeder (1985)]. Reaction mixtures contained (20 µl): 0–100 µM GE, 8 U HeLaScribe Nuclear Extract (Promega, Madison, WI), 1 µg human placental DNA (Sigma–Aldrich), 400 μM ATP, 400 μM [α^32P]UTP (0.11 Bq/fmol), 400 μM CTP, 400 μM GTP, 50 mM Tris–HCl, pH 8.0, 7 mM HEPES-NaOH, 70 mM (NH4)2SO4, 50 mM KCl, 12 mM MgCl2, 5 mM DTT, 0.1 mM EDTA, 0.08 mM phenylmethylsulfonyl fluoride, and 16% glycerol. Reaction components other than DNA and NTPs were pre-incubated 10 min at 30°C, DNA was added and reaction mixtures were incubated 15 min at 30°C, NTPs were added and reaction mixtures were incubated 60 min at 30°C. Reaction mixtures were spotted on DE81 filter discs (Whatman, Kent, UK; pre-wetted with water) and incubated 1 min at room temperature. Filters were washed with 3 × 3 ml Na2HPO4, 2 × 3 ml water, and 3 ml ethanol, using a filter manifold (Hoefer, Holliston, MA). Filters were placed in scintillation vials containing 10 ml Scintiverse BD Cocktail (Thermo Fisher, Waltham, MA), and radioactivity was quantified by scintillation counting (LS6500; Beckman–Coulter, Brea, CA).
Half-maximal inhibitory concentrations (IC50s) were calculated by non-linear regression in SigmaPlot (SPSS, Chicago, IL).

T2 sequence (Q8RQE8 whole entry): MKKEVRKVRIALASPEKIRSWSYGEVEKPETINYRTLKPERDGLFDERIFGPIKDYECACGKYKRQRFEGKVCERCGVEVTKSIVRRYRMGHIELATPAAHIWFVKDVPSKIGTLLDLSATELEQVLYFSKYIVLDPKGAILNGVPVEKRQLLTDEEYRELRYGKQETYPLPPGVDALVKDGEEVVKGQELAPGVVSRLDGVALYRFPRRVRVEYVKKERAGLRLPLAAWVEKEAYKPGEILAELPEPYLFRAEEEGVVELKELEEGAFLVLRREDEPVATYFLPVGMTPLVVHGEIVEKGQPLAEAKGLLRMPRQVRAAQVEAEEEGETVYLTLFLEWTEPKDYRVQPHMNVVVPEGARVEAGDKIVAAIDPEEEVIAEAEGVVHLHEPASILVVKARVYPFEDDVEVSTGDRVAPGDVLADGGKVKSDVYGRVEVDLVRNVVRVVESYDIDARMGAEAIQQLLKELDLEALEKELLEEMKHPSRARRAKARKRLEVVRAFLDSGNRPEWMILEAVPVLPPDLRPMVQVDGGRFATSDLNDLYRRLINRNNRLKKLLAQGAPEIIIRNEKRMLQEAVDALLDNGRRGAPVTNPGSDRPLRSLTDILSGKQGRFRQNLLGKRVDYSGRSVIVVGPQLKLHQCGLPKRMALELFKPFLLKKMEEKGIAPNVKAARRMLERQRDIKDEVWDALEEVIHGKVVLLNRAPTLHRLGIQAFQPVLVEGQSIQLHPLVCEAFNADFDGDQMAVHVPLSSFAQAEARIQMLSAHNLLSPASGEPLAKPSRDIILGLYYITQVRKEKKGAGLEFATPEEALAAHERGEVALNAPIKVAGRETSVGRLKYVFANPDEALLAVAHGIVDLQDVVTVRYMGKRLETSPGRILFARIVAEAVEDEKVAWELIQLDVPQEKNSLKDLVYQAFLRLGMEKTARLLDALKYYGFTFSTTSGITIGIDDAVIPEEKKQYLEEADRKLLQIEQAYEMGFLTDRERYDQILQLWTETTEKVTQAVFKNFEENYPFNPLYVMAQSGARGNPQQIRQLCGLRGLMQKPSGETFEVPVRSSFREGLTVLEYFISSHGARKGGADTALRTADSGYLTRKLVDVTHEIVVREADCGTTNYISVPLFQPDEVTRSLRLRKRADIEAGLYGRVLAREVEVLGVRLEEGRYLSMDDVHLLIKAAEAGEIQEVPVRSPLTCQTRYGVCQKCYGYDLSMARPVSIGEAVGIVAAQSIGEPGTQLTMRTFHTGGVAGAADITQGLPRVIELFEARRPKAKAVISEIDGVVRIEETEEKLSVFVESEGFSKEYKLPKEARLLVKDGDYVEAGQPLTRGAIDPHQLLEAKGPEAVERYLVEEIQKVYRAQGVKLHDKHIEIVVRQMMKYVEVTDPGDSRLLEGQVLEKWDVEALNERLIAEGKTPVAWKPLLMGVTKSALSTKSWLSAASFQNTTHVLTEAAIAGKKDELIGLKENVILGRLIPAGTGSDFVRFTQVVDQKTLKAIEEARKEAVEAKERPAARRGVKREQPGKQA
T2 sequence (Q8RQE9 whole entry): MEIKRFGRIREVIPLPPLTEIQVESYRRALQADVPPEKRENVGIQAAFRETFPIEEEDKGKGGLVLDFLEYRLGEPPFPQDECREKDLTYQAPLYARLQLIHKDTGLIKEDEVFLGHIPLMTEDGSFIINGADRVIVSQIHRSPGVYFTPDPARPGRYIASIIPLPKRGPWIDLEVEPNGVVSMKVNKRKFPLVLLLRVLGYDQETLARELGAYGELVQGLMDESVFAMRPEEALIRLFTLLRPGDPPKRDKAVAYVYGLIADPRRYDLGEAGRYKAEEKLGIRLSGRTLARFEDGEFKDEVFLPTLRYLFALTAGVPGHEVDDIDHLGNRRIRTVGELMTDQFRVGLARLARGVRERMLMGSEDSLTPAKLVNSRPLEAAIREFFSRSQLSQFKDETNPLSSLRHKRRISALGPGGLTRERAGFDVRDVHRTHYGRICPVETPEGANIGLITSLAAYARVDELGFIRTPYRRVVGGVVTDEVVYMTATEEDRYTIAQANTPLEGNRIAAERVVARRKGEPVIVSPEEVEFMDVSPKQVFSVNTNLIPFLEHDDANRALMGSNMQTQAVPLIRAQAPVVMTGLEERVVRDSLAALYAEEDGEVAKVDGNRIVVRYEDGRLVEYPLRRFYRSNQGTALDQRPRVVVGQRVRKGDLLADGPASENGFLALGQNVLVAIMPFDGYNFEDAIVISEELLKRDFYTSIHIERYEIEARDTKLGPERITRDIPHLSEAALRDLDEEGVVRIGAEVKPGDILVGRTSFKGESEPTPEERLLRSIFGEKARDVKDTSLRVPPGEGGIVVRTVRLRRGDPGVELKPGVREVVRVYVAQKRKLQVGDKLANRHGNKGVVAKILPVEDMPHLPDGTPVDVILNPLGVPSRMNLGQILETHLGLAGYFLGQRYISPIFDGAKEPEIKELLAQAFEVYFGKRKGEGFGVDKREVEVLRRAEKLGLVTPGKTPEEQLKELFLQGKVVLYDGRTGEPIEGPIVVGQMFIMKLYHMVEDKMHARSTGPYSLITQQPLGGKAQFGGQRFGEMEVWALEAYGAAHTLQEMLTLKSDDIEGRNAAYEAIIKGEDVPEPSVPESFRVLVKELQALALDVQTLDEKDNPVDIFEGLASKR

Which results are given for `CC=C(C)C(=O)NCC1NC(=O)C(C(=O)O)NC(=O)C(O)CNC(=O)C(C(C)O)NC(=O)C(C(O)C(O)C(N)=O)NC(=O)C(C(C)C)NC(=O)C(CO)NC1=O` (stereo not shown) [GE, GE23077]?
inhibition of single nucleotide addition, reconstituted elongation complex (E. coli RNAP core enzyme): does not inhibit single nucleotide addition; cross-resistance of Rif^R mutants to GE (E. coli D21f2tolC; Rif^R mutants): do not exhibit cross-resistance; resistance, fold higher MIC, all six GE^R substitutions (E. coli D21f2tolC; all six GE^R substitutions): ≥ fourfold; IC50 [1]: 20000 nM; inhibition of nucleotide addition in transcription elongation, halted elongation complex (E. coli RNAP holoenzyme [2]): does not inhibit transcription elongation; inhibition of formation of RNAP-promoter open complex (RPo) (E. coli RNAP holoenzyme [3]): does not inhibit; inhibition of first nucleotide addition, de novo transcription initiation (E. coli RNAP holoenzyme [4]): inhibits the first nucleotide-addition step; inhibition of first nucleotide addition, primer-dependent transcription initiation (E. coli RNAP holoenzyme [5]): inhibits the first nucleotide-addition step; MICwild-type: 500 µg/mL; IC50 [6]: 100 nM; IC50 [7]: 20 nM; IC50 (Escherichia coli RNAP): 20 nM; MIC [8]: 25 µg/mL (≈ 31.1 µM); MIC [9]: 250 µg/mL (≈ 311 µM); MIC [10]: 250 µg/mL (≈ 311 µM); resistance level (MIC/MICwild-type) (S. pyogenes; S. pyogenes rpoB 565 [525] Glu→Gly): 32; resistance level (MIC/MICwild-type) (S. pyogenes; S. pyogenes rpoB 565 [525] Glu→Val): 32; resistance level (MIC/MICwild-type) (S. pyogenes; S. pyogenes rpoB 681 [643] Met→Lys): 16; resistance level (MIC/MICwild-type) (S. pyogenes; S. pyogenes rpoB 684 [646] Asn→Ile): >32; MICwild-type (S. pyogenes; wild-type S. pyogenes): 250 µg/mL; Ki ([Asp565]β-RNAP): > 2000 nM; Ki ([Lys684]β-RNAP [11]): > 2000 nM; IC50 ([Lys684]β-RNAP [12]): > 400000 nM; fold decrease of kon for Rif by GE ([13]; saturating GE): ~20 fold; fold increase of Kd for Rif by GE ([13]; saturating GE): ~80 fold; fold increase of koff for Rif by GE ([13]; saturating GE): fourfold; Ki ([13]; wild-type RNAP, 24°C, read-out: Ki,GE, equilibrium dissociation constant for inhibition of RNAP-Rif interaction by GE): 6 nM; IC50 (Human RNAP I / II / III): > 50000 nM

Source: article PMC3994528, “GE23077 binds to the RNA polymerase ‘i’ and ‘i+1’ sites and prevents the binding of initiating nucleotides” (eLife, 2014)
